Results from US9919998B2, “Antibacterial agents: Nα-aroyl-N-aryl-phenylalaninamides” (priority 2014, dated 2018).
Converted amounts (≈) assume the structure as drawn. Like-named read-outs stand apart in the source and are kept apart here.

Assays:
[1] = tested on: Mycobacterium avium ATCC 25291; assay: Microplate Alamar Blue assay (MABA) MIC, M. avium; format: cell-based; settings: ATCC25291, M. avium ATCC 25291
Text: (§1) Minimal inhibitory concentrations (MICs) in Mycobacterium tuberculosis H37Rv and Mycobacterium avium ATCC 25291 were quantified using microplate Alamar Blue assays as described (MABA; [Collins, L. & Franzblau, S. (1997) Microplate Alamar Blue assay versus BACTEC 460 system for high-throughput screening of compounds against Mycobacterium tuberculosis and Mycobacterium avium. Antimicrob. Agents Chemother. 41, 1004-1009]).

[2] = tested on: Mycobacterium tuberculosis H37Rv; assay: Microplate Alamar Blue assay (MABA) MIC, M. tuberculosis; format: cell-based; settings: read-out: MIC Mycobacterium tuberculosis H37Rv
Text: as §1

[3] = tested on: Mycobacterium smegmatis ATCC 19420; assay: Broth microdilution MIC, M. smegmatis; format: cell-based; settings: Mycolicibacterium smegmatis
Text: (§2) MICs in Mycobacterium smegmatis ATCC 19420 and Mycobacterium smegmatis ATCC 19420 derivatives were quantified using broth microdilution assays as described [Clinical and Laboratory Standards Institute (CLSI/NCCLS) (2009) Methods for Dilution Antimicrobial Susceptibility Tests for Bacteria That Grow Aerobically; Approved Standard, Eighth Edition. CLIS Document M07-A8 (CLIS, Wayne Pa.)].

[4] = biological target: Mycobacterium tuberculosis RNA polymerase (Mycobacterium tuberculosis, UniProt P9WGY7+P9WGY9); assay: Run-off transcription assay with Mycobacterium tuberculosis RNA polymerase (radiochemical); format: biochemical; settings: IC50 Mycobacterium tuberculosis RNA polymerase
Sequence of Mycobacterium tuberculosis RNA polymerase (P9WGZ1 whole entry, the tested form may be a part): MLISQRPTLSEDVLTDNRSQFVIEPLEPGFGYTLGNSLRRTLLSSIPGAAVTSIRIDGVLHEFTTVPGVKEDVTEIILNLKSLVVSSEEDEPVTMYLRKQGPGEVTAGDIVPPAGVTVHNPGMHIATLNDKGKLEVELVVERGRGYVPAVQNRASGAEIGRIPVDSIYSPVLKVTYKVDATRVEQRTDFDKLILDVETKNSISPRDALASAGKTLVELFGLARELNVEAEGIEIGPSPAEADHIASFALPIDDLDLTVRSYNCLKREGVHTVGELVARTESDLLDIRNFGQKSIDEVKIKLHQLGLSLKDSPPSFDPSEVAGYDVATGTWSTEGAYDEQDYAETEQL
Sequence of Mycobacterium tuberculosis RNA polymerase (P9WGY5 whole entry, further chain, the tested form may be a part): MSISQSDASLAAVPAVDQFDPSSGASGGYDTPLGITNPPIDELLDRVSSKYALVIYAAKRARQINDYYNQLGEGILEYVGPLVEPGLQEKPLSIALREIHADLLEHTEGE
Sequence of Mycobacterium tuberculosis RNA polymerase (P9WGY9 whole entry, the tested form may be a part): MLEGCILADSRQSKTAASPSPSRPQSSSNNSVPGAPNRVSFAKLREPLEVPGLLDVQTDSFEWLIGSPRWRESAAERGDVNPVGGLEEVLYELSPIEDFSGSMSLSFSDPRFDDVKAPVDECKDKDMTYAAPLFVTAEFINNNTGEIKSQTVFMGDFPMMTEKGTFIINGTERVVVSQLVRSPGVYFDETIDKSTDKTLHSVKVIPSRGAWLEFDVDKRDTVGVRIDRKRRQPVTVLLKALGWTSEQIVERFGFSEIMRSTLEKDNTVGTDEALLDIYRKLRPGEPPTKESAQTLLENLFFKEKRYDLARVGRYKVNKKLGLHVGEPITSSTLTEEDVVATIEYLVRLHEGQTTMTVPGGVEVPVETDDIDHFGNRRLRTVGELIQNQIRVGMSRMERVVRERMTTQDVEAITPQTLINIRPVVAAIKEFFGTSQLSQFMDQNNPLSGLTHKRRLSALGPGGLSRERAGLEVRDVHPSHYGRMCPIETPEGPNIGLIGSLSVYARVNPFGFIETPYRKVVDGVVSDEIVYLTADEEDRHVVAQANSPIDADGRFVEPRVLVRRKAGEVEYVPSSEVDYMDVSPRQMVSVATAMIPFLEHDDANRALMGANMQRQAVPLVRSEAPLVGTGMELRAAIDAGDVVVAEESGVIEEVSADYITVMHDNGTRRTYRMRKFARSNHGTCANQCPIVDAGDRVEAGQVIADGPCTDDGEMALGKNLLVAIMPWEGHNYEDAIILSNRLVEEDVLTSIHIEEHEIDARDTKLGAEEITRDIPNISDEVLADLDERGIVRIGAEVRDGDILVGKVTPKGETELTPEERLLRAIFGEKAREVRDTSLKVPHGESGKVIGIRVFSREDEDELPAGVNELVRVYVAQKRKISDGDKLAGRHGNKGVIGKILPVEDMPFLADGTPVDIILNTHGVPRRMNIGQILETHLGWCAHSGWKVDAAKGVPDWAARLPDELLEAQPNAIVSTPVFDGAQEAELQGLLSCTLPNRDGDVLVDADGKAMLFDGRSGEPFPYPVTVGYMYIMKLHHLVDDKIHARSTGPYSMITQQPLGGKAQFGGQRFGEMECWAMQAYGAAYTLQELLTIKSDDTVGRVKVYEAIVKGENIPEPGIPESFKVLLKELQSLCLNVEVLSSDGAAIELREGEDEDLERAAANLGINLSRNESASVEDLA
Sequence of Mycobacterium tuberculosis RNA polymerase (P9WGI1 whole entry, further chain, the tested form may be a part): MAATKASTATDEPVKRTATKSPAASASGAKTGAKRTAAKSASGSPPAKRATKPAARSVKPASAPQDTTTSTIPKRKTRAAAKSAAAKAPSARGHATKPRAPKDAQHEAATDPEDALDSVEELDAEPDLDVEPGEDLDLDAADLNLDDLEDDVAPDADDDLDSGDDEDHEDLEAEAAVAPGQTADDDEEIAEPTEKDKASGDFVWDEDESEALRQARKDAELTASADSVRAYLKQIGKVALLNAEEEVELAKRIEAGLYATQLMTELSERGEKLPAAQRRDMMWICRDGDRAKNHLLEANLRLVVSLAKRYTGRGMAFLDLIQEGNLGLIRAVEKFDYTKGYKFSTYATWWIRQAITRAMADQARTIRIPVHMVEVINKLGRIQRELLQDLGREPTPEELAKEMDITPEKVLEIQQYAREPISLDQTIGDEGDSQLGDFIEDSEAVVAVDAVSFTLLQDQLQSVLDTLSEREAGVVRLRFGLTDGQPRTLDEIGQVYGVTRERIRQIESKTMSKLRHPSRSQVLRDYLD
Sequence of Mycobacterium tuberculosis RNA polymerase (P9WGY7 whole entry, the tested form may be a part): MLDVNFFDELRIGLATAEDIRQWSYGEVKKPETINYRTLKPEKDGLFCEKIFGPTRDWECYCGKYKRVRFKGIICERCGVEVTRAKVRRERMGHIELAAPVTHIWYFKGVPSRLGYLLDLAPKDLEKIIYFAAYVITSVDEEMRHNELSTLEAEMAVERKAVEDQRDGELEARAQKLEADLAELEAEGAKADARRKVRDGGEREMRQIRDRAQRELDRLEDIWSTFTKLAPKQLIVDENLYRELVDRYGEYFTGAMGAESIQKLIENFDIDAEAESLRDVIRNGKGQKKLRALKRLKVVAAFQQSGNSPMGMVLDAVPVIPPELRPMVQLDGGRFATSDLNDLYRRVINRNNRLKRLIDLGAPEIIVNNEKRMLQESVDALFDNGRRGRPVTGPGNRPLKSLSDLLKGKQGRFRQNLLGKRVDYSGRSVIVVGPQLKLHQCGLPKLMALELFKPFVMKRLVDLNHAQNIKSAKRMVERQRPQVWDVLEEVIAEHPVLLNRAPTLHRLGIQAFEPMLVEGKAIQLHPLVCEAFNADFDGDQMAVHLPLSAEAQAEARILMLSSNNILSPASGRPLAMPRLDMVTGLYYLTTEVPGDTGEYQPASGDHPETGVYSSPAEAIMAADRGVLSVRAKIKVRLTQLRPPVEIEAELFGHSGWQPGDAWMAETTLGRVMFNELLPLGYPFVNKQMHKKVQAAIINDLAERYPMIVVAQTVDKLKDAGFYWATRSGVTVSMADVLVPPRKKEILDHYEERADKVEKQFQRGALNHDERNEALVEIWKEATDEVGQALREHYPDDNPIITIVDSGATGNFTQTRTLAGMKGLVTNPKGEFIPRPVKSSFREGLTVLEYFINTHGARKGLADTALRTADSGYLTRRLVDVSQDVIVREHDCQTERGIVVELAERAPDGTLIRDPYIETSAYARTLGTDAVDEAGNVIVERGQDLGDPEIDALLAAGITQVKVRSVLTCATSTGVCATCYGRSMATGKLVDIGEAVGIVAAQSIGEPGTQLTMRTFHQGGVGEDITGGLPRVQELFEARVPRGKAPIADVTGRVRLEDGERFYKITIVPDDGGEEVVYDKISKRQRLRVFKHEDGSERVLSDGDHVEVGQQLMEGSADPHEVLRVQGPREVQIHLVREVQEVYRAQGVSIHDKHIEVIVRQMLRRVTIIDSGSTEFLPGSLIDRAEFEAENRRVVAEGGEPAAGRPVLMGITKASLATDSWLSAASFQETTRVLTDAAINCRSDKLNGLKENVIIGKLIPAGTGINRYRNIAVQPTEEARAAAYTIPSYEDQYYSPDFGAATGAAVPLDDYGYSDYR
Procedure: Run-off transcription assays with Mycobacterium tuberculosis RNA polymerase were performed using reaction mixtures containing (10 μl): 0-100 μM test compound, 75 nM Mycobacterium tuberculosis RNA polymerase core enzyme, 300 nM Mycobacterium tuberculosis σ^A, 20 nM 130 bp DNA fragment containing positions −100 to −1 of the bacteriophage […] N25 promoter followed by positions +1 to +30 of the lacUV5-15 promoter of [Mukhopadhyay, J., Kapanidis, A., Mekler, V., Kortkhonjia, E., Ebright, Y., Ebright, R. (2001) Cell 106, 453-463], 25 nM [alpha-^32P]UTP (600 Bq/pmol) for an initial 2 min at 37° C. and 100 μM [alpha-^32P]UTP (6 Bq/pmol) for a subsequent 5 min at 37° C., 100 μM ATP, 100 μM GTP, 100 μM UTP, 100 μM CTP, 40 mM Tris-HCl, pH 8.0, 80 mM NaCl, 5 mM MgCl2, 2.5 mM DTT, and 12.7% glycerol. Reactions were terminated by addition of […] 80% formamide, 10 mM EDTA, 0.04% bromophenol blue, and 0.04% xylene cyanol, followed by heating for 5 min at 90° C. Reaction products were resolved by 15% urea-PAGE, and quantified using a storage-phosphor scanner.

[5] = tested on: rifampin-resistant mutants, derivatives of M. smegmatis ATCC19420; assay: MICs in rifampin-resistant mutants (cross-resistance levels); format: cell-based, Mycobacterium smegmatis
Text: as §2

[6] = tested on: Vero E6 ATCC CRL1586 cells; assay: Mammalian-cell cytotoxicity, minimal cytotoxic concentration (CellTiter96); format: cell-based
Procedure: Minimal cytotoxic concentrations (MCCs) against mammalian cells in culture were determined using Vero E6 ATCC CRL1586 cells and the CellTiter96 assay kit (Promega, Inc.). […]

[7] = tested on: AAP1-resistant mutants, derivatives of M. smegmatis ATCC19420; assay: MICs in AAP1-resistant mutants (resistance and cross-resistance levels); format: cell-based, Mycobacterium smegmatis; settings: MICs in AAP1-resistant mutants
[8] = ATCC19420, M. smegmatis ATCC 19420, read-out: MIC Mycobacterium smegmatis ATCC 19420

SMILES	MIC [1] [µg/mL]	MIC [2] [µg/mL]	MIC [3, 8] [µg/mL]	IC50 [4] [nM]	cross-resistance of rifampin-resistant mutants to the compound [5]	MCC mammalian cells Vero E6 ATCC CRL1586 [6] [µg/mL]	cross-resistance of AAP1-resistant mutants to the compound [7]	MIC ([3]; ATCC19420, read-out: MIC with wild-type rpoB and wild-type rpoC, M. smegmatis ATCC19420 wild type, reference for AAP1-resistant mutants) [µg/mL]	hypersensitivity of AAP1-resistant mutants to the compound [7]
Cc1ccccc1NC(=O)C(Cc1ccccc1)NC(=O)c1ccccc1F (stereo not drawn) [I-80]	6.25 (≈ 16.6 µM)	3.12 (≈ 8.29 µM)	0.39 (≈ 1.04 µM)	2800	No rifampin-resistant mutant was found to exhibit cross-resistance	43			
Cc1ccc(Cl)cc1NC(=O)C(Cc1ccccc1)NC(=O)c1ccccc1 (stereo not drawn) [I-86]	3.12 (≈ 7.95 µM)	1.56 (≈ 3.97 µM)	0.195 (≈ 0.496 µM)	920	No rifampin-resistant mutant was found to exhibit cross-resistance	13			
O=C(NC(Cc1ccccc1)C(=O)Nc1ccccc1OCF)c1ccccc1 (stereo not drawn) [IX-27, N-(1-((2-(fluoromethoxy)phenyl)amino)-1-oxo-3-phenylpropan-2-yl)benzamide]	3.12 (≈ 7.96 µM)	1.56 (≈ 3.98 µM)	0.195 (≈ 0.497 µM)	990		>100			
COc1ccc(F)cc1NC(=O)C(Cc1ccc(O)cc1)NC(=O)c1ccccc1F (stereo not drawn) [IX-204, 2-fluoro-N-(1-((5-fluoro-2-methoxyphenyl)amino)-3-(4-hydroxy-phenyl)-1-oxopropan-2-yl)benzamide]	1.56 (≈ 3.66 µM)	0.78 (≈ 1.83 µM)	0.39 (≈ 0.915 µM)	390		50			
O=C(NC(Cc1ccccc1)C(=O)Nc1cccc2scnc12)c1ccccc1 (stereo not drawn) [IX-235, N-(1-(benzo[d]thiazol-4-ylamino)-1-oxo-3-phenylpropan-2-yl)benz-amide]	6.25 (≈ 15.6 µM)	3.12 (≈ 7.78 µM)	0.78 (≈ 1.94 µM)				cross-resistance		
O=C(NC(Cc1ccccc1)C(=O)Nc1cc(F)ccc1N1CCNCC1)c1ccccc1 (stereo not drawn) [IX-245, N-(1-((5-fluoro-2-(piperazin-1-yl)phenyl)amino)-1-oxo-3-phenyl-propan-2-yl)benzamide]	0.78 (≈ 1.75 µM)	1.56 (≈ 3.49 µM)	0.39 (≈ 0.873 µM)	220		17			
COc1ccc(F)cc1NC(=O)C(Cc1ccccc1)NC(=O)c1ccccc1F (stereo not drawn) [IX-276, 2-fluoro-N-(1-((5-fluoro-2-methoxyphenyl)amino)-1-oxo-3-phenyl-propan-2-yl)benzamide]	0.78 (≈ 1.9 µM)	0.16 (≈ 0.39 µM)	0.39 (≈ 0.95 µM)				cross-resistance		
NC1CCN(c2ccc(F)cc2NC(=O)C(Cc2ccccc2)NC(=O)c2ccccc2F)CC1 (stereo not drawn) [IX-312, N-(1-((2-(4-aminopiperidin-1-yl)-5-fluorophenyl)amino)-1-oxo-3-phenylpropan-2-yl)-2-fluorobenzamide]	3.13 (≈ 6.54 µM)	3.13 (≈ 6.54 µM)	0.195 (≈ 0.407 µM)				cross-resistance		
O=C(NC(Cc1ccccc1)C(=O)Nc1cc(F)ccc1N1CC2CNCC2C1)c1ccccc1F (stereo not drawn) [IX-313, 2-fluoro-N-(1-((5-fluoro-2-(hexahydropyrrolo[3,4-c]pyrrol-2(1H)-yl)phenyl)amino)-1-oxo-3-phenylpropan-2-yl)benzamide]	1.56 (≈ 3.18 µM)	1.56 (≈ 3.18 µM)	0.39 (≈ 0.795 µM)				cross-resistance		
O=C(NC(Cc1ccccc1)C(=O)Nc1cc(F)ccc1N1CCNCC1)c1ccccc1Br (stereo not drawn) [IX-315, 2-bromo-N-(1-((5-fluoro-2-(piperazin-1-yl)phenyl)amino)-1-oxo-3-phenylpropan-2-yl)benzamide]	1.56 (≈ 2.97 µM)	3.12 (≈ 5.95 µM)	0.39 (≈ 0.742 µM)	210		12.5			
CO[C@H]1/C=C/O[C@@]2(C)Oc3c(C)c(O)c4c(O)c(c(/C=N/N5CCN(C)CC5)c(O)c4c3C2=O)NC(=O)/C(C)=C\C=C\[C@H](C)[C@H](O)[C@@H](C)[C@@H](O)[C@@H](C)[C@H](OC(C)=O)[C@@H]1C [rifampin, reference compound]							No AAP1-resistant mutant was found to exhibit cross-resistance	3.13 (≈ 3.8 µM)	Some AAP1 resistant mutants were found to be hypersensitive
